Consider one substance from patent US7781416B2, “Derivatives of partially desulphated glycosaminoglycans as heparanase inhibitors, endowed with antiangiogenic activity and devoid of anticoagulating effect” (Sigma-Tau Research Switzerland S.A., priority 2002, dated 2010).

Holding throughout (format): biochemical
The target in test [1] is T1, recombinant heparanase (Homo sapiens, UniProt Q9Y251).
T1 sequence (Q9Y251 36-543): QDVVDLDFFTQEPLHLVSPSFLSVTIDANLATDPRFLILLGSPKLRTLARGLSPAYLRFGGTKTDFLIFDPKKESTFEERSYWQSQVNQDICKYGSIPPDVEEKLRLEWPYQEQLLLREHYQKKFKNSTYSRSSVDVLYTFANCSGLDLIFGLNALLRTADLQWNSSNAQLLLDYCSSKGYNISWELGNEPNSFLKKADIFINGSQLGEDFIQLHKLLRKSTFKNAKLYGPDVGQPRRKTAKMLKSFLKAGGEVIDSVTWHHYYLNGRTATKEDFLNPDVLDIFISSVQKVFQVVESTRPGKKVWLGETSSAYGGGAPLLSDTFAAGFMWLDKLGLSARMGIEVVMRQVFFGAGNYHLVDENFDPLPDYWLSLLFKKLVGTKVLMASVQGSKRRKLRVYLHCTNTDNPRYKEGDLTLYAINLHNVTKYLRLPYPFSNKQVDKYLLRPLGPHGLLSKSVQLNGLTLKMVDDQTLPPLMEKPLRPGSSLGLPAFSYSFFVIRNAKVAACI
Description: Heparanase inhibition, fragmentation of HS of sulphate labelled ECM (Table 1). Conditions: pH 6.2. How it is done:
The heparanase inhibiting activity was determined according to a method established by Vlodavsky's group (Bitan M. et al, 1995). The method is based on evaluation of the extent of fragmentation of the heparan sulphate chains of heparan sulphate proteoglycans (HSPG) caused by heparanase. Sulphate labelled extracellular matrix (ECM) is most commonly used as a source of HSPG. Sulphate labelled ECM is incubated with recombinant heparanase at pH 6.2 in the absence and in the presence of increasing concentrations of the test compound. To evaluate the occurrence of proteoglycan degradation, the incubation medium is collected and applied for gel filtration on Sepharose 6B columns (0.9×30 cm). Fractions (0,2 ml) are eluted with PBS at a flow rate of 5 ml/h and counted for radioactivity. The excluded volume (Vo) is marked by blue dextran and the total included volume (Vt) by phenol red. Degradation fragments of HS side chains are eluted from Sepharose 6B at 0.5<Kav<0.8 (peak II).

Test [2] concerns the target T2, recombinant heparanase (Homo sapiens, UniProt Q9Y251).
T2 construct: Recombinant enzymatically active heparanase was purified from heparanase-transfected CHO cells; made in house; host or cells: CHO cells transfected with heparanase
T2 sequence (Q9Y251 158-543 limits assumed): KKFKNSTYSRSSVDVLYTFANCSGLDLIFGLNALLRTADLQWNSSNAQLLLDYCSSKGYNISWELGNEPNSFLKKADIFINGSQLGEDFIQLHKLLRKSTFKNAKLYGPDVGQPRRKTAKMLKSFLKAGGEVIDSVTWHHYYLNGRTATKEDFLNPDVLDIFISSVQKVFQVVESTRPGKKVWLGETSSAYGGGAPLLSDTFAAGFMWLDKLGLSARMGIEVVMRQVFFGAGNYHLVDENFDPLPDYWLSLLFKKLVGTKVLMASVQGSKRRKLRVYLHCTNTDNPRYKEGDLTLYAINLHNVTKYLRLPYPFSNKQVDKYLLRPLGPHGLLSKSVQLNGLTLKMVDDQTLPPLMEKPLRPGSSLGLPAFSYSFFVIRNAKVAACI
T2 sequence (Q9Y251 36-109 limits assumed): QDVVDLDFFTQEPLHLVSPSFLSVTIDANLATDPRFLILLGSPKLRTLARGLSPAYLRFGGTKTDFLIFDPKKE
As to the kind of experiment: Heparanase inhibition activity with sulfate labeled ECM as substrate (Example 4, Table 2). Conditions: 1 μg/ml; heparanase 40 ng/ml, 4 h, 37° C., pH 6.0. As to the method:
Recombinant enzymatically active heparanase was purified from heparanase-transfected CHO cells (1).
Bovine corneal endothelial cells were plated into 35-mm tissue culture dishes at an initial density of 2×10^5 cells/ml and cultured as described above, except that 4% dextran T-40 was included in the growth medium (1, 52). On day 12, the subendothelial ECM was exposed by dissolving the cell layer with PBS containing 0.5% Triton X-100 and 20 mM NH4OH, followed by four washes with PBS (12). The ECM remained intact, free of cellular debris and firmly attached to the entire area of the tissue culture dish. To produce sulfate labelled ECM, […] (Amersham, Buckinghamshire, UK) was added (25 μCi/ml) on days 2 and 5 after seeding and the cultures were incubated with the label without medium change and processed as described (1, 52). Nearly 80% of the ECM radioactivity was incorporated into HSPG.
Heparin species were tested for their ability to inhibit heparanase, using metabolically sulfate labeled ECM as a substrate. […] Fractions (0.2 ml) were eluted with PBS at a flow rate of 5 ml/h and counted for radioactivity. […]
Heparanase activity is calculated as the total amount of cpm eluted in peak II multiplied by the Kav (i.e., elution position) of these fragments. […]

The target in test [3] is T2, recombinant heparanase. As to the kind of experiment: Gel permeation analysis before and after digestion with heparanase (susceptibility to cleavage). Conditions: 2 mg compound, 4 μg recombinant heparanase, 48 h, 37° C., pH 5.8; GPC-HPLC. How it is done: FIG. 8. Glycol-splitting inhibits cleavage by heparanase. Gel filtration profiles of fully N-acetylated heparin (A) and 52% glycol split heparin (B) before (a) and after (b) incubation with heparanase. 2 mg of each compound were incubated for 48 h at 37° C. in 40 mM phosphate-citrate buffer, pH 5.8, with or without 4 μg recombinant heparanase in a total volume of 50 μl. The samples were lyophilized, then redisolved in 0.5 ml water and analyzed by GPC-HPLC using 300×7.8 mm TSK PW 2000 and PW 3000 colums and a refraction index detector. The sharp peak is from salts.
Gel permeation analysis of N-acetyl heparin (NAH) and ˜50% glycol-split heparin (H, 52gs) before and after digestion with heparinase 2 mg of each compound were incubated for 48 h at 37° C. in 40 mM phosphate-citrate buffer, pH 5.8, with or without 4 μg recombinant heparanase in a total volume of 50 μl. The samples were lyophilized, then redisolved in 0.5 ml of water and analyzed by GPC-HPLC using 300×7.8 mm TSK PW 2000 and PW 3000 columns.

On to Heparin, for which the Inhibition in test [1] is greater than 100%. The “Heparanase inhibitory activity, % Mean [SD (N)]” value in test [2] is listed as roughly 70%. The cleavage by heparanase entry in test [3] was “cleaved by heparanase”.
